The text below walks through data of paper PMC9260667, “Thioredoxin Reductase Inhibitors as Potential Antitumors: Mercury Compounds Efficacy in Glioma Cells” (Frontiers in Molecular Biosciences, 2022).

Like-named read-outs stand apart in the source and are kept apart here. A value given as a limit tells only on which side of the number the result lay.

Test [1] addresses T1, TrxR (Mus musculus, UniProt Q9JLT4).
T1 construct: These lysates were compared to a control group and used to quantify TrxR and Trx activity and expression; These fractions were used to quantify TrxR and Trx activity and expression; endogenous in cells; host or cells: GL261 mouse glioma cells (whole lysate, cytosolic and mitochondrial fractions)
In kind it is cell-based. To be noted: mitochondria, 1 µM, 24 h. How it is done:
(§1) Total cell lysates were prepared according to previous protocols ([Branco et al., 2014]). 1 × 10^6 cells were plated in […] culture dishes incubated at 37°C until reaching 70–80% confluence. At this point, the culture medium was refreshed and TmHg and EtHg (0.5; 1; 2 µM) were added and incubated at 37°C for 24 h, after which cells were collected by trypsinization and washed with PBS 1x. Subsequently, the pellet was resuspended in lysis buffer (25 mM TrisCl, pH 7.5; 100 mM NaCl; 2.5 mM EDTA; 2.5 mM EGTA; 20 mM NaF, 1 mM sodium orthovanadate, 20 mM sodium pyrophosphate; 20 mM of sodium β-glycerophosphate, 0.5% Triton X-100, and 1 tablet of protease inhibitor cocktail per 10 ml; Roche) vortexed and frozen at −20°C. These lysates were compared to a control group and used to quantify TrxR and Trx activity and expression as described below.
(§2) To obtain the mitochondrial and cytosolic fractions, after exposure to Hg compounds cells were washed and suspended in mitochondrial isolation buffer (210 mM mannitol, 70 mM sucrose, 1 mM EDTA, 10 mM Hepes–NaOH, and pH 7.5), containing protease inhibitor cocktail (Roche). Cells were disrupted with a Teflon pestle and then centrifuged at 600 g for 10 min at 4°C. The resulting nuclear pellets were discarded, and the supernatant was further centrifuged at 13,000 g and 4°C for 15 min, to obtain the mitochondrial pellets and the supernatant soluble fraction. Mitochondrial pellets were treated with cell lysis buffer as described above for whole-cell lysates and the supernatant fraction was further centrifuged at 100,000 g and 4°C for 1 h, to produce the cytosolic fraction ([Branco et al., 2014]). These fractions were used to quantify TrxR and Trx activity and expression as described below.
(§3) The enzymatic activity of TrxR and Trx was determined according to the insulin end-point assay described by [Arnér and Holmgren (2000)] with modifications ([Branco et al., 2014]).
(§4) In parallel, control wells were prepared to contain the same reagents previously mentioned apart from Trx. After the incubation period, 250 µL of a 1 mM DTNB solution in 6 M guanidine-HCL (pH 8.0) was added to wells, and absorbance was measured at 412 nm in a microplate reader (Zenyth 3100, Anthos Labtec Instruments). […] The same procedure was done for the determination of Trx activity, but the samples were incubated with 100 nM of recombinant rat TrxR (IMCO Corp, Sweden) instead of Trx ([Branco et al., 2014]).

Test [2] concerns TrxR. The class given is cell-based, mouse. The settings on record: for decrease of TrxR activity: cytosol, 1 µM, 24 h; for IC50: whole-cell lysates, GL261 exposed 24 h. How it is done:
as §1, §2, §3, §4

The next test concerns Trx. The class given is cell-based, mouse. The settings on record: whole-cell lysates, GL261 exposed 24 h. How it is done: as §1, §2, §3, §4
Test [3] relates to GL261 cells. Put plainly: cells. The class given is cell-based, mouse. To be noted: read-out: IC50 (MTT assay). As to the method:
The effect of TmHg and EtHg on the viability of GL261 and N9 cells was evaluated by the MTT assay as previously described ([Branco et al., 2014]). Briefly, cells (5 × 10^3) were seeded in 96-well plates (Nunc®) and incubated at 37°C for 24 h to allow proper adherence to plates. Afterwards, TmHg and EtHg (0, 0.5, 1, 2.5, and 5 μM) were added to wells. The same procedure was carried out to evaluate the effect of TMZ on the cellular viability of GL261 and DMSO at a final concentration of 0.1% was added as a control group. For co-exposure, the addition of the mercury compounds (EtHg—1 and 2 μM; TmHg—1 and 2 µM) under study followed the addition of TMZ (200 µM).
Cell viability was determined at the time of addition of the compounds (0 h) and after 24, 48, and 72 h of exposure by adding MTT to a final concentration of 400 μg/ml per well and incubating at 37°C for 4 h. After incubation, the medium was removed, and the formazan crystals were dissolved in a 4:1 DMSO/glycine buffer (pH 10.5). After shaking for 15 min, the viability was evaluated through the measurement of formazan absorption at 550 nm on a microplate reader (Zenyth 3100, Anthos Labtec Instruments) ([Branco et al., 2014]).
The IC50 is the concentration of a compound that decreases MTT reduction by 50% relative to the non-treated control at each time point.

In test [4] the test system is GL261 cells. The experiment in a line: Guava ViaCount assay, apoptotic cells. The class given is cell-based, mouse. To be noted: GL261, 24 and 48 h exposure. As to the method:
The ViaCount Assay was used to distinguish viable and non-viable cells based on the differential permeability of two dyes in the Guava ViaCount Reagent. The membrane-permeant dye stains all nucleated cells, leaving the cellular debris unstained, while the membrane-impermeant dye brightly stains damaged cells, thus indicating apoptotic and dying cells. GL261 cells (6 × 10^4) were seeded for 24 h in 24-well plates and thereafter were exposed to the TmHg and EtHg for 24 and 48 h. Following treatment, cells were collected from plates along with cell culture supernatants and centrifuged for 5 min (650 g). Supernatants were discarded and the cells were resuspended in phosphate-buffered saline (PBS) containing 2% FBS. Subsequently, 15 μL of cell suspension were mixed with 135 μL of Guava ViaCount reagent and incubated for 5 min at room temperature. Sample acquisition and data analysis were performed with the Guava easyCyte 5HT flow cytometer (GuavaTechnologies, Inc., Hayward, CA, United States) using the ViaCount software module.

The subject of test [5] is GL261 cells. The experiment in a line: cells. To be noted: for increase of LDH release upon co-exposure with TMZ: GL261, 200 µM TMZ + 1 µM mercury compound; for EC50: GL261, 24 h exposure, read-out: EC50 (LDH assay). In kind it is cell-based, mouse. As to the method: Cells were seeded in 96-well plates for 24 h prior to the addition of TmHg, EtHg (1 µM), TMZ (200, 400, and 800 µM), and for the 48 h end point the co-exposure of TMZ 200 µM with 1 µM EtHg and 1 µM TmHg. After exposure for 24 and 48 h, the supernatant was transferred to a fresh plate and a lysis buffer (10×) (Thermo Scientific™ Pierce™) was added to wells containing cells and incubated at 37°C for 45 min. LDH activity was evaluated using LDH Cytotoxicity Assay Kit from Thermo Scientific™ Pierce™ in the supernatant and lysate by the addition of lactate (substrate), a tetrazolium salt, and NAD^+ (cofactor) (Reaction Mixture), according to the manufacturer’s instructions. Following 30 min of incubation in the dark at room temperature, LDH release was assessed by measuring the absorbance at 490 and 680 nm in a microplate reader (Omega BMG LABTECH). The release of LDH was quantified as the ratio between the amount in the supernatant and total LDH (supernatant + lysate) ([Branco et al., 2017]).

T1 sequence (Q9JLT4 35-524): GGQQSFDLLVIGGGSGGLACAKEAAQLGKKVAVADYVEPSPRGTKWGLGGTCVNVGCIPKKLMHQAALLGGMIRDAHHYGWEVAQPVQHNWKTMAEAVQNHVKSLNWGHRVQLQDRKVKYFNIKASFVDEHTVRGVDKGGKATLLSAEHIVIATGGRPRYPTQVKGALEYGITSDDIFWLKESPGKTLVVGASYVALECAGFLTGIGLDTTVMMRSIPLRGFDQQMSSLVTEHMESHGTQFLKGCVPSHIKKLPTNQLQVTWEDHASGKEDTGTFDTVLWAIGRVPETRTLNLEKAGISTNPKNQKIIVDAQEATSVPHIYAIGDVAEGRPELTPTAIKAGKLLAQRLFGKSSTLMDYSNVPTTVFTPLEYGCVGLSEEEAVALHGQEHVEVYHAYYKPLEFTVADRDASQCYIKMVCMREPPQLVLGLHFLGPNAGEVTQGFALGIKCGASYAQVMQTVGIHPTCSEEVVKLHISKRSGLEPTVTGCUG

For the molecule `C[CH2][Hg]` [EtHg, ethylmercury], the results for the “decrease of TrxR activity” value at TrxR [1] and in the test with TrxR [2] were “lesser effect” and 50%, respectively. Further, the half-inhibitory concentration (IC50) was 800 nM in the test on TrxR [2]; 1300 nM in the test on Trx; 2700 ± 300 nM in the test on GL261 cells [3] (GL261, 24 h exposure); 2400 ± 400 nM with GL261 cells [3] (GL261, 48 h exposure); 970 ± 70 nM in the test with GL261 cells [3] (GL261, 72 h exposure). Further, in the test with GL261 cells [4], the “increase in number of apoptotic cells compared to control” value was more than 50%. In the test on GL261 cells [5], the “increase of LDH release upon co-exposure with TMZ” value is recorded as “greater than 50%”. Moreover, the EC50 in the test with GL261 cells [5] was 1710 ± 400 nM. For the same molecule, the “EC50 (LDH) fold lower in GL261 than in SH-SY5Y cells” value in the test on GL261 cells [5] (GL261 versus previously reported SH-SY5Y value (Branco et al., 2017)) is 3 fold.

Regarding `C[CH2][Hg][S]c1ccccc1C(=O)[O-].[Na+]` [TmHg, thimerosal], the “decrease of TrxR activity” value at TrxR [1] and in the test with TrxR [2] was 60% in each case. For the same molecule, the concentration for half-maximal inhibition (IC50) was 700 nM in the test on TrxR [2]; 700 nM in the test on Trx; 2500 ± 400 nM with GL261 cells [3] (GL261, 24 h exposure); 2500 ± 400 nM with GL261 cells [3] (GL261, 48 h exposure); 920 ± 100 nM with GL261 cells [3] (GL261, 72 h exposure). Moreover, the “increase in number of apoptotic cells compared to control” value in the test on GL261 cells [4] was more than 50%. In the test on GL261 cells [5], the “increase of LDH release upon co-exposure with TMZ” value was “greater than 50%”. Also, the EC50 in the test on GL261 cells [5] came out at 1310 ± 200 nM.
